According to paper PMC10449634, “A general method for the development of multicolor biosensors with large dynamic ranges” (Nature Chemical Biology, 2023):
Each block holds one molecule with its values, some of them ahead of it.

Key:
[1] = molecular target: T1, ATeam 1.03 (Bacillus subtilis, UniProt P37812); assay: FRET sensor titration; format: binding; details: read-out: C50
T1 construct: gene atpC; epsilon subunit between mseCFP and Venus

[2] = molecular target: T2, ChemoG1 (eGFP-HT7) (Rhodococcus sp. (in: high G+C Gram-positive bacteria), UniProt P0A3G3, L47V/S58T/D78G/Y87F/L88M/C128F/A155T/E160K/A167V/A172T/K175M/C176G/K195N/A224E/N227D/E257K/T264A/H272N/Y273L/P291S/A292T); assay: X-ray crystallography, […] Å; format: binding; details: covalent; HaloTag labelling with chloroalkane; fluorophore at eGFP-HT7 interface
T2 construct: gene dhaA; eGFP fused directly to N terminus of HaloTag7; His10 removed with TEV protease; E. coli

[3] = molecular target: HaloTag7 (HT7) E143R E147R L271E labeled with SiR, as the C-terminal part of ChemoG5 (construct for fluorescence spectroscopy); assay: FRET or BRET; intramolecular FRET of the purified eGFP–HT7 fusion (both partners on one chain), 200 nM protein labeled with 400 nM fluorophore–CA substrate, activity buffer (50 mM HEPES, 50 mM NaCl, pH 7.3) with 0.5 mg/ml BSA, 37 °C, plate reader

T1 sequence (P37812 whole entry): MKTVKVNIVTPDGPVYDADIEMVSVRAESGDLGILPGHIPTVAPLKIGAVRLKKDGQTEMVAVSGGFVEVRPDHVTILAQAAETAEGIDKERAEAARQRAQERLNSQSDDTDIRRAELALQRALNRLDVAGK

Molecule: Nc1ncnc2c1ncn2[C@@H]1O[C@H](COP(=O)(O)OP(=O)(O)OP(=O)(O)O)[C@@H](O)[C@H]1O [ATP]
EC50 [1]: 1800 µM

Molecule: CN(C)c1ccc2c(-c3cc(C(=O)NCCOCCOCCCCCCCl)ccc3C(=O)[O-])c3ccc(=[N+](C)C)cc-3oc2c1 [TMR-CA]
X-ray crystallography, 1.8 Å [2]: X-ray structure of ChemoG1 labeled with the fluorophore tetramethylrhodamine

FRET efficiency [3]: 95.8%
Molecule: eGFP A206K T225R, as the N-terminal part of ChemoG5 (construct for fluorescence spectroscopy) (from UniProt P42212 3-238) (domain or fragment)
